The values that follow come from the Kinase Knowledgebase extract (Sharma et al. 2016).

pIC50: −log10 of the molar value.

This test deals with PIK3CA (human) (UniProt P42336). Kind of test: Inhibition of PIK3CA Kinase Activity.
PIK3CA (human), sequence (P42336 whole entry, looked up): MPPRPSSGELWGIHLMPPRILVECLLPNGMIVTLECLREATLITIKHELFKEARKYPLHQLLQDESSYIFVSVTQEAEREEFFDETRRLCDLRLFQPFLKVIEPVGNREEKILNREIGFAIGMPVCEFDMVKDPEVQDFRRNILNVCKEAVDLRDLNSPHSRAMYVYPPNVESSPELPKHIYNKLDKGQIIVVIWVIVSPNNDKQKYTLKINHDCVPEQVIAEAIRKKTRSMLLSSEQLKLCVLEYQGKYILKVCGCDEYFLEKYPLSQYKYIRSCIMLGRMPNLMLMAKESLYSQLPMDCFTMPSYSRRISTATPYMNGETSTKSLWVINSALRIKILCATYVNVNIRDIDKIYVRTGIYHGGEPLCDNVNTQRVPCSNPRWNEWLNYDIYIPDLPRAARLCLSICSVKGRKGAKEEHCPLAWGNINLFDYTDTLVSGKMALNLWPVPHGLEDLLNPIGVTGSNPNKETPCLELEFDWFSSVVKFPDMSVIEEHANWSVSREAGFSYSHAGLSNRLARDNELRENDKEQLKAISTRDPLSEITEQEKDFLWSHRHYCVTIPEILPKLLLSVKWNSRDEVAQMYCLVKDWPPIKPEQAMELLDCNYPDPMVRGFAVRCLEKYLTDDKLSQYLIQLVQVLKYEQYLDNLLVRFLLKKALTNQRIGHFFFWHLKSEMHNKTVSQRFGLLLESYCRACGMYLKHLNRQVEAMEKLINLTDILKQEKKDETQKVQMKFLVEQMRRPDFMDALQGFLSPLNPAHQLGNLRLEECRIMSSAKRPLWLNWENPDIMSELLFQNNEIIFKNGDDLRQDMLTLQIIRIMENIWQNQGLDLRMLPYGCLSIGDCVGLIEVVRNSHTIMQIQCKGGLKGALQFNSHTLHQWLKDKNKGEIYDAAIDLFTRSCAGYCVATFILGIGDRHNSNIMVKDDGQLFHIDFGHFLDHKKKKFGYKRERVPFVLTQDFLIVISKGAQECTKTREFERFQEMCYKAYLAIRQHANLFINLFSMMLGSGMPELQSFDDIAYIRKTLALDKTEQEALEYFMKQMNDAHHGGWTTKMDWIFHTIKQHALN
Compound `O=C(c1ccc(F)cc1)N1CCC(n2ncc3c(N4CCOCC4)nc(-c4ccc5[nH]ccc5c4)nc32)CC1` showed a pIC50 of 5.76.

In turn, `CN(C)C(=O)C=CCN1CCC(n2ncc3c(N4CCOCC4)nc(-c4ccc5[nH]ccc5c4)nc32)CC1` showed a negative logarithm of the IC50 (pIC50) of 6.32. This pIC50 is 0.56 log units higher than that of the compound before.

Compound `c1ccc(CN2CCC(n3ncc4c(N5CCOCC5)nc(-c5cccc(-c6ccccc6)c5)nc43)CC2)cc1` had a pIC50 of 5.00.

For `CNC(=O)Nc1ccc(-c2nc(N3CCOCC3)c3cnn(C4=CC[S+]([O-])CC4)c3n2)cc1` (centres undefined), the negative-log IC50 (pIC50) was 7.10.

`O=C(O)c1cccc(-c2nc(N3CCOCC3)c3cnn(C4CCN(Cc5ccccc5)CC4)c3n2)c1` showed a negative logarithm of the IC50 (pIC50) of 5.00.

For the compound `CNC(=O)Nc1ccc(-c2nc(N3CCOCC3)c3cnn(C4CCN(C(N)=O)CC4)c3n2)cc1`, the pIC50 is 7.18.

As to `CN(C)C(=O)c1ccc(-c2nc(N3CCOCC3)c3cnn(C4CCN(Cc5ccccc5)CC4)c3n2)cc1`, the pIC50 is 5.00.

For the compound `Clc1ccccc1CN1CCC(n2ncc3c(N4CCOCC4)nc(-c4ccc5[nH]ccc5c4)nc32)CC1`, the pIC50 was 5.77. Compared with the last compound, the pIC50 is 0.77 log units higher.

The compound `CC(=O)Nc1ccc(-c2nc(N3CCOCC3)c3cnn(C4CCCCO4)c3n2)cc1` (centres undefined) had a negative-log IC50 (pIC50) of 5.78.

Consider `NC(=O)Nc1ccc(-c2nc(N3CCOCC3)c3cnn(C4CCN(C(=O)c5ccccc5)CC4)c3n2)cc1`, for which the IC80 is 84 nM.

On to `c1cc2cc(-c3nc(N4CCOCC4)c4cnn([C@H]5CCCNC5)c4n3)ccc2[nH]1`, for which the negative-log IC50 (pIC50) is 5.00.

Turning to `COC(=O)Nc1ccc(-c2nc(N3CCOCC3)c3cnn(C4CCN(Cc5ccc(F)nc5)CC4)c3n2)cc1`, the pIC50 was 5.92. This pIC50 lies 0.92 log units higher than the previous one.

`CN(C)c1cccc(-c2nc(N3CCOCC3)c3cnn(C4CCN(Cc5ccccc5)CC4)c3n2)c1` gave a negative logarithm of the IC50 (pIC50) of 5.04. Against the preceding compound, the pIC50 is 0.88 log units lower.

For `c1cc2cc(-c3nc(N4CCOCC4)c4cnn([C@@H]5CCCNC5)c4n3)ccc2[nH]1`, the negative logarithm of the IC50 (pIC50) is 5.00. This pIC50 and that of the compound before are within 0.2 log units of each other.

For `CNC(=O)Nc1ccc(-c2nc(N3CCOCC3)c3cn[nH]c3n2)cc1`, the pIC50 was 7.85.

In turn, `CCOC(=O)Nc1ccc(-c2nc(N3CCOCC3)c3cnn(C4CCN(C(=O)OCC)CC4)c3n2)cc1` had a negative-log IC50 (pIC50) of 5.17. This pIC50 is 2.68 log units lower than that of the compound before.

Compound `c1ccc(CN2CCC(n3ncc4c(N5CCOCC5)nc(-c5ccc6ccccc6c5)nc43)CC2)cc1` had a pIC50 of 5.09.

In the case of `c1ccc(CN2CCC(n3ncc4c(N5CCOCC5)nc(-c5cccc6c5sc5ccccc56)nc43)CC2)cc1`, the pIC50 is 5.06.

Compound `c1ccc(-n2ncc3c(N4CCOCC4)nc(-c4csc5ccccc45)nc32)cc1` had a pIC50 of 5.00.

As for `CNC(=O)Nc1ccc(-c2nc(N3CCOCC3)c3cnn(C4CCN(COC)CC4)c3n2)cc1`, the negative-log IC50 (pIC50) is 5.81.

Consider `c1ccc(-n2ncc3c(N4CCOCC4)nc(-c4cncnc4)nc32)cc1`, for which the pIC50 is 6.36.

Compound `c1ccc(CN2CCC(n3ncc4c(N5CCOCC5)nc(-c5cccc6ccccc56)nc43)CC2)cc1` showed a pIC50 of 5.00.

Compound `NC(=O)Cc1cccc(-c2nc(N3CCOCC3)c3cnn(-c4ccccc4)c3n2)c1` gave a pIC50 of 6.45. Compared with the last compound, the pIC50 is 1.45 log units higher.

The compound `c1ccc(CN2CCC(n3ncc4c(N5CCOCC5)nc(-c5ccc(-c6ccccc6)cc5)nc43)CC2)cc1` had a negative-log IC50 (pIC50) of 5.07.

In turn, `CC(C)(C)OC(=O)N1CCC(n2ncc3c(N4CCOCC4)nc(-c4ccc(NC(=O)Nc5cccnc5)cc4)nc32)CC1` showed a pIC50 of 7.49.

`Nc1ccc(-c2nc(N3CCOCC3)c3cn[nH]c3n2)cc1` had a pIC50 of 5.79.

As to `COC(=O)Nc1ccc(-c2nc(N3CCOCC3)c3cnn(C4CCN(C(=O)c5ccc(C#N)cc5)CC4)c3n2)cc1`, the pIC50 is 6.00.

`O=C(c1cccc(C(F)(F)F)c1)N1CCC(n2ncc3c(N4CCOCC4)nc(-c4ccc5[nH]ccc5c4)nc32)CC1` gave a negative-log IC50 (pIC50) of 5.84. This pIC50 and that of the compound before are within 0.2 log units of each other.

Compound `CNC(=O)Nc1ccc(-c2nc(N3CCOCC3)c3cnn(C4=CCS(=O)(=O)CC4)c3n2)cc1` gave a pIC50 of 7.13.
